Assay results from ChEMBL document CHEMBL5727507, “Substituted indole Mcl-1 inhibitors” (2020).

target: Induced myeloid leukemia cell differentiation protein Mcl-1 (Homo sapiens, UniProt Q07820); assay: Fluorescence Polarization Anisotropy Competition Assay: Compound affinity was measured using a fluorescence polarization anisotropy competition assay. Anisotropy measurements were carried out in 384-well, black, flat-bottom plates (Greiner Bio-one, Monroe, N.C., USA).
Sequence (Q07820 whole entry): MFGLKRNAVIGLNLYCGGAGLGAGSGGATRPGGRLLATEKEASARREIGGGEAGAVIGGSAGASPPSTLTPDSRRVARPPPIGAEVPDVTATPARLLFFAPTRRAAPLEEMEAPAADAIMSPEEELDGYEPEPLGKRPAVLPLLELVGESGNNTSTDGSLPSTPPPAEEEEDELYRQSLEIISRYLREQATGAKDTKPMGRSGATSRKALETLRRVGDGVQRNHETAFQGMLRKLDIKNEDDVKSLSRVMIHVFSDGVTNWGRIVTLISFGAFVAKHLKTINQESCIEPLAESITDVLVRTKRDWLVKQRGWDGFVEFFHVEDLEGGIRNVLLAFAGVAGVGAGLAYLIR

Ki, < 50 nM:
Cc1cc(OCCCc2c3n(c4c(-c5c(C)nn(C)c5C)cccc24)CCCN(c2ccnc4c(C(=O)O)cccc24)C3=O)cc(C)c1Cl
Cc1cc(OCCCc2c(C(=O)N(C)c3ccc(C(=O)O)cc3)[nH]c3c(-c4c(C)nn(C)c4C)c(Cl)ccc23)cc(C)c1Cl
Cc1cc(OCCCc2c3n(c4c(-c5c(C)nn(C)c5C)c(Cl)ccc24)[C@H](C)CN(c2ccc(C(=O)O)c4ncccc24)C3=O)cc(C)c1Cl
Cc1cc(OCCCc2c(C(=O)N3CCN(c4ccc(C(=O)O)cc4)CC3)n(CCN3CCOCC3)c3c(-c4c(C)nn(C)c4C)c(Cl)ccc23)cc(C)c1Cl
Cc1cc(OCCCc2c(C(=O)N[C@@H]3CCC[C@@H](C(=O)O)C3)[nH]c3c(-c4c(C)nn(C)c4C)cccc23)cc(C)c1Cl
Cc1cc(OCCCc2c3n(c4c(-c5c(C)nn(C)c5C)c(Cl)ccc24)CCCN(c2ccc(C(=O)O)c4ncccc24)C3=O)cc(C)c1Cl
Cc1cc(OCCCc2c(C(=O)NCc3cc(C(=O)O)cc(Cl)n3)[nH]c3c(-c4c(C)nn(C)c4C)cccc23)cc(C)c1Cl
Cc1cc(OCCCc2c(C(=O)N[C@H]3CC[C@@H](C(=O)O)CC3)[nH]c3c(-c4c(C)nn(C)c4C)cccc23)cc(C)c1Cl
Cc1cc(OCCCc2c3n(c4c(-c5c(C)nn(C)c5C)c(Cl)ccc24)CCCN(c2ccc(C(=O)O)c4c2ccn4C)C3=O)cc(C)c1Cl
